Laboratory results taken from US20220409629A1, “BENZODIAZEPINE DERIVATIVES FOR TREATING A RESPIRATORY SYNCYTIAL VIRUS (RSV) INFECTION” (priority 2019, published 2022).

Assays:
[1] = tested on: RSV A2; test: RSV plaque reduction assay; type: cell-based, respiratory syncytial virus (RSV); conditions: human respiratory syncytial virus, HepG2; Hep-G2 cells, RSV A2, mean of at least two experiments
Description: Compounds were subjected to RSV plaque reduction assays according to the following protocol.
Hep-G2 cells (ECACC, 85011430) were passaged in flasks and seeded in 24-well plates in DMEM containing antibiotics and supplemented with 10% FBS. During inoculation and subsequent incubation, cells were cultured in DMEM containing 2% FBS. 100 plaque forming unit/well of RSV (RSV A2 ECACC, 0709161v) was mixed with eight serial dilutions of compound. Subsequently, 100 μL of the virus/compound mixtures was added to confluent Hep-G2 cell monolayers. The cells and virus/compound mixtures were incubated at 37° C. in a humidified 5% CO2 incubator for 2 h prior to removal of the inoculum and addition of 1 mL of overlay (DMEM containing 2% FBS and 0.8% CMC) containing compound dilutions. The cells and were incubated at 37° C. in a humidified 5% CO2 incubator for 2 days.
Cells were washed with PBS before adding 75/25% v/v EtOH/MeOH, for 3 min. Fixative was removed and plates were washed with PBS. A pre-titrated amount of the primary antibody was added in 200 μL PBS/2% milk powder, and plates incubated for 90 min at 37° C. The plates were washed 3 times with PBS/0.05% Tween20 before addition of rabbit anti-goat horse radish peroxidase in 200 μL PBS/2% milk powder, and incubated for 1 h at 37° C. Following three wash steps with PBS/0.05% Tween20, 200 μL ready-to-use TrueBlue was added and plates were incubated at rt for 10-15 min before washing with water. After removal of water, plates were air-dried in the dark.
Plates were scanned and analysed using the Immunospot S6 Macro analyser, which is equipped with BioSpot analysis software for counting immunostained plaques (virospots). Plaque counts were used to calculate % infection relative to the mean of the plaque count in the virus control wells for RSV. The EC50 value was calculated as 50% reduction in signal, respectively, by interpolation of inhibition curves fitted with a 4-parameter nonlinear regression with a variable slope in Dotmatics. Plaque EC50 and cell toxicity CC50 values are a mean of at least two experiments and figures are rounded to whole units.

[2] = Cell cytotoxicity CC50; type: cell-based; conditions: human; mean of at least two experiments
[3] = Liver microsomal stability, rat; type: in vitro ADME; conditions: pH 7.4; rat liver microsomes, 0.5 mg/mL protein, 1 μM compound, NADPH; >80% remaining at 45 min denoted >140; read-out: Liver Microsomal Stability: t1/2 (min); rat
Description: (§1) Compounds were subjected to the following assays to investigate liver microsomal stability, permeability and plasma protein binding.
(§2) Pooled liver microsomes were purchased from a reputable commercial supplier and stored at −80° C. prior to use. Microsomes (final protein concentration 0.5 mg/mL), 0.1 M phosphate buffer pH 7.4 and test compound (final substrate concentration 1 μM; final DMSO concentration 0.25%) were pre-incubated at 37° C. prior to the addition of NADPH (final concentration 1 mM) to initiate the reaction. The final incubation volume was 50 μL. A control incubation was included for each compound tested where 0.1 M phosphate buffer pH 7.4 was added instead of NADPH (minus NADPH). Two control compounds were included with each species. All incubations were performed singularly for each test compound. Each compound was incubated for 0, 5, 15, 30 and 45 min. The control (minus NADPH) was incubated for 45 min only. The reactions were stopped by transferring incubate into acetonitrile at the appropriate time points, in a 1:3 ratio. The termination plates are centrifuged at 3,000 rpm for 20 min at 4° C. to precipitate the protein. Following protein precipitation, the sample supernatants were combined in cassettes of up to 4 compounds, internal standard added, and samples analysed by LC-MS/MS. From a plot of ln peak area ratio (compound peak area/internal standard peak area) against time, the gradient of the line was determined. Subsequently, half-life (t1/2) and intrinsic clearance (CLint) were calculated.

[4] = Liver microsomal stability, dog; type: in vitro ADME; conditions: pH 7.4; dog liver microsomes, 0.5 mg/mL protein, 1 μM compound, NADPH; >80% remaining at 45 min denoted >140; read-out: Liver Microsomal Stability: t1/2 (min); dog
Description: as §1, §2

[5] = Liver microsomal stability, human; type: in vitro ADME; conditions: pH 7.4; human liver microsomes, 0.5 mg/mL protein, 1 μM compound, NADPH; >80% remaining at 45 min denoted >140; read-out: Liver Microsomal Stability: t1/2 (min); human
Description: as §1, §2

| Compound | EC50 [1] [nM] | CC50 [2] [nM] | half-life [3] [min] | half-life [4] [min] | half-life [5] [min] |
| --- | --- | --- | --- | --- | --- |
| CCn1ncc(C(=O)N[C@H]2N=C(c3ccccc3)c3ccccc3NC2=O)c1-c1ccc(NC)nc1F [Example 1, 1-Ethyl-5-[2-fluoro-6-(methylamino)pyridin-3-yl]-N-[(3S)-2-oxo-5-phenyl-1,3-dihydro-1,4-benzodiazepin-3-yl]pyrazole-4-carboxamide] | 91 | > 25000 | 24.4 | 11.1 | 48.1 |
| CCNc1ccc(-c2c(C(=O)N[C@H]3N=C(c4ccccc4)c4ccccc4NC3=O)cnn2CC)c(F)n1 [Example 2, 1-Ethyl-5-[6-(ethylamino)-2-fluoropyridin-3-yl]-N-[(3S)-2-oxo-5-phenyl-1,3-dihydro-1,4-benzodiazepin-3-yl]pyrazole-4-carboxamide] | 88 | > 25000 | 30.3 | 23.9 | 44.4 |
| CCn1ncc(C(=O)N[C@H]2N=C(c3ccccc3)c3ccccc3NC2=O)c1-c1ccc(NC2CCC2)nc1F [Example 5, 5-[6-(Cyclobutylamino)-2-fluoropyridin-3-yl]-1-ethyl-N-[(3S)-2-oxo-5-phenyl-1,3-dihydro-1,4-benzodiazepin-3-yl]pyrazole-4-carboxamide] | 87 | > 25000 | 47.4 | 45.7 | 50.1 |
| CCn1ncc(C(=O)N[C@H]2N=C(c3ccccc3)c3ccccc3NC2=O)c1-c1ccc(NC2(C)CC2)nc1F [Example 6, 1-Ethyl-5-[2-fluoro-6-[(1-methylcyclopropyl)amino]pyridin-3-yl]-N-[(3S)-2-oxo-5-phenyl-1,3-dihydro-1,4-benzodiazepin-3-yl]pyrazole-4-carboxamide] | 32 | > 25000 | 31.5 | 72.5 | 23 |
| CCn1ncc(C(=O)N[C@H]2N=C(c3ccccc3)c3ccccc3NC2=O)c1-c1ncc(NC2CC2)cc1F [Example 7, 5-[5-(Cyclopropylamino)-3-fluoropyridin-2-yl]-1-ethyl-N-[(3S)-2-oxo-5-phenyl-1,3-dihydro-1,4-benzodiazepin-3-yl]pyrazole-4-carboxamide] | 69 | > 25000 | 595 | 85.8 | 97 |
| CCn1ncc(C(=O)N[C@H]2N=C(c3ccccc3)c3ccccc3NC2=O)c1-c1ncc(NC(C)C)cc1F [Example 8, 1-Ethyl-5-[3-fluoro-5-(propan-2-ylamino)pyridin-2-yl]-N-[(3S)-2-oxo-5-phenyl-1,3-dihydro-1,4-benzodiazepin-3-yl]pyrazole-4-carboxamide] | 32 | > 25000 | > 140 | 104 | 193 |
| CCn1ncc(C(=O)N[C@H]2N=C(c3ccccc3)c3ccccc3NC2=O)c1-c1ccc(NC(C)C)cc1F [Example 9, 1-Ethyl-5-[2-fluoro-4-(propan-2-ylamino)phenyl]-N-[(3S)-2-oxo-5-phenyl-1,3-dihydro-1,4-benzodiazepin-3-yl]pyrazole-4-carboxamide] | 73 | > 25000 | 141 | 89.1 | 220 |
| CCNc1ccc(-c2c(C(=O)N[C@H]3N=C(c4ccccc4)c4ccccc4NC3=O)c(C)nn2CC)c(F)n1 [Example 10, 1-Ethyl-5-[6-(ethylamino)-2-fluoropyridin-3-yl]-3-methyl-N-[(3S)-2-oxo-5-phenyl-1,3-dihydro-1,4-benzodiazepin-3-yl]pyrazole-4-carboxamide] | 89 | > 25000 | 20.2 | 85.8 | 48.1 |
| CCn1ncc(C(=O)N[C@H]2N=C(c3ccccc3)c3cccc(F)c3NC2=O)c1-c1ncc(NC2CC2)cc1F [Example 12, 5-[5-(Cyclopropylamino)-3-fluoropyridin-2-yl]-1-ethyl-N-[(3S)-9-fluoro-2-oxo-5-phenyl-1,3-dihydro-1,4-benzodiazepin-3-yl]pyrazole-4-carboxamide] | 45 | > 25000 | 51.1 | 68.5 | 193 |
| CCNc1cnc(-c2c(C(=O)N[C@H]3N=C(c4ccccc4)c4cccc(F)c4NC3=O)cnn2CC)c(F)c1 [Example 13, 1-Ethyl-5-[5-(ethylamino)-3-fluoropyridin-2-yl]-N-[(3S)-9-fluoro-2-oxo-5-phenyl-1,3-dihydro-1,4-benzodiazepin-3-yl]pyrazole-4-carboxamide] | 68 | > 25000 | 9.6 | 35.6 | 42.9 |
| CCNc1ccc(-c2c(C(=O)N[C@H]3N=C(c4ccccc4)c4ccccc4NC3=O)cnn2C2CC2)c(F)n1 [Example 14, 1-Cyclopropyl-5-[6-(ethylamino)-2-fluoropyridin-3-yl]-N-[(3S)-2-oxo-5-phenyl-1,3-dihydro-1,4-benzodiazepin-3-yl]pyrazole-4-carboxamide] | 95 | > 25000 | 37.9 | 59.3 | 93.7 |
| O=C(N[C@H]1N=C(c2ccccc2)c2ccccc2NC1=O)c1cnn(C2CC2)c1-c1ccc(NC2CC2)nc1F [Example 15, 1-Cyclopropyl-5-[6-(cyclopropylamino)-2-fluoropyridin-3-yl]-N-[(3S)-2-oxo-5-phenyl-1,3-dihydro-1,4-benzodiazepin-3-yl]pyrazole-4-carboxamide] | 51 | > 25000 | 69.8 | 57.7 | 72.3 |
| CC(C)n1ncc(C(=O)N[C@H]2N=C(c3ccccc3)c3ccccc3NC2=O)c1-c1ccc(NC2CC2)nc1F [Example 16, 5-[6-(Cyclopropylamino)-2-fluoropyridin-3-yl]-N-[(3S)-2-oxo-5-phenyl-1,3-dihydro-1,4-benzodiazepin-3-yl]-1-propan-2-ylpyrazole-4-carboxamide] | 50 | > 25000 | 72.7 | 22.2 | 50.6 |
| CCn1ncc(C(=O)N[C@H]2N=C(c3ccccc3)c3cccc(F)c3NC2=O)c1-c1ncc(NC(C)C)cc1F [Example 17, 1-Ethyl-N-[(3S)-9-fluoro-2-oxo-5-phenyl-1,3-dihydro-1,4-benzodiazepin-3-yl]-5-[3-fluoro-5-(propan-2-ylamino)pyridin-2-yl]pyrazole-4-carboxamide] | 52 | > 25000 | 318 | 68.9 | 120 |
| O=C(N[C@H]1N=C(c2ccccc2)c2ccccc2NC1=O)c1cnn(C2COC2)c1-c1ccc(NC2CC2)nc1F [Example 18, 5-[6-(Cyclopropylamino)-2-fluoropyridin-3-yl]-1-(oxetan-3-yl)-N-[(3S)-2-oxo-5-phenyl-1,3-dihydro-1,4-benzodiazepin-3-yl]pyrazole-4-carboxamide] | 83 | > 25000 | 93.5 | 149 | 144 |
